For assay [1], the system named is E. coli BW25113 expressing TS7-Mut_9::sfGFP. Briefly: Toehold switch reporter assay, flow cytometry. Type of assay: cell-based. The settings on record: CPP conjugated to PNA_toe, 5 µM, 17 h. The protocol: Overnight cultures of respective bacterial strains (listed in Table S5) were diluted 1:100 in fresh MHB and grown to OD600 0.3. Overnight and secondary cultures were prepared with or without chloramphenicol (20 µg/mL) depending on the antibiotic resistance profile of the strain. Ninty-five microliters of the 0.3 OD600 bacterial suspension was distributed in the 96-well plate and mixed with 5 µL water or 20× CPP PNA working solutions (150 µM, 100 µM or 50 µM stocks in water). An equivalent volume of water was added to the bacteria to serve as untreated control. […]
The PNA-treated samples were incubated in the plate reader for 4–24 h at 37°C, with continuous double-orbital shaking (237 counts per minute). The fluorescence (λex 480 nm/λem 510 nm) and OD600 were recorded in a Synergy H1 plate reader (Biotek) by measuring every 20 min. The bacteria were sampled at various time points post-treatment and further analyzed by flow cytometry.
Bacterial cells were treated as described above, fixed with 4% paraformaldehyde (PFA) in phosphate-buffered saline (PBS) after the indicated time points, and stained with 1 µg/mL DAPI for flow cytometric measurement of DAPI-positive bacterial cells. […] Flow cytometry was performed using the Agilent Novocyte flow cytometer with a high-throughput sampler, and 100,000 events were recorded per sample. […]
In general terms: In a reporter assay the amount or activity of a reporter protein is the signal.

In assay [2] the test system is Salmonella, UPEC 536, E. coli MG1655 and BW25113 expressing TS7-Mut_9::sfGFP. Briefly: Toehold switch reporter assay, flow cytometry, statements for all strains. Type of assay: cell-based, Salmonella enterica; E. coli. The settings on record: CPP conjugated to PNA_toe; 5 µM; measured at 4, 6 and 17 h; all strains. The protocol:
According to previous RNA-seq analyses ([12], [13], [22]), CPP-PNAs can strongly downregulate target mRNAs within 15 min. […] We therefore repeated the screen conducted and assayed fluorescence by flow cytometry at 4, 6, and 17 h post-treatment. […] The level of upregulation observed in the E. coli K12 strains was again substantially lower than in Salmonella and UPEC 536. […] This might be related to the stability of KFF in the culture media.
Fig 9 Flow cytometric analysis of fluorescence of sfGFP informs on delivery efficiency of CPPs. Bacterial cultures expressing the TS7-Mut_9::sfGFP reporter construct treated with the indicated CPP-PNA_toe constructs at 5 µM each. The median fluorescence intensity of sfGFP was measured after 4 h (black bars), 6 h (dark gray bars), and 17 h (light gray bars) of treatment using flow cytometry. Relative upregulation of sfGFP is shown and was calculated by dividing the median fluorescence intensity of the test samples by the median fluorescence intensity of the control samples, to which water was added. Error bars indicate the standard deviation calculated from two independent experiments.
Overnight cultures of respective bacterial strains (listed in Table S5) were diluted 1:100 in fresh MHB and grown to OD600 0.3. Overnight and secondary cultures were prepared with or without chloramphenicol (20 µg/mL) depending on the antibiotic resistance profile of the strain. Ninty-five microliters of the 0.3 OD600 bacterial suspension was distributed in the 96-well plate and mixed with 5 µL water or 20× CPP PNA working solutions (150 µM, 100 µM or 50 µM stocks in water). An equivalent volume of water was added to the bacteria to serve as untreated control. For testing the activity in other growth media (M9 minimal medium and LB), the bacteria were cultured in the respective media and treated as described above.
Bacterial cells were treated as described above, fixed with 4% paraformaldehyde (PFA) in phosphate-buffered saline (PBS) after the indicated time points, and stained with 1 µg/mL DAPI for flow cytometric measurement of DAPI-positive bacterial cells. Cell suspensions were diluted by a factor of ~100–1,000 in PBS and sampled from 96-well plates to achieve ~2,000 counts/s for flow cytometric measurements. Flow cytometry was performed using the Agilent Novocyte flow cytometer with a high-throughput sampler, and 100,000 events were recorded per sample. The DAPI fluorescence was detected using the Pacific Blue channel; sfGFP and mNeon were detected in the FITC channel, and mCherry fluorescence in the PE-Texas Red channel. The lower threshold for FSC-H was set to 2,000 to eliminate the potential artifacts from smaller particles such as dust, bubbles, or cell debris. The wild-type strains without plasmids served as a control to detect the background fluorescence, termed bacterial background. A contour plot with FSC and SSC, each with bins defined on a logarithmic scale was used to select singlets. The gating strategy is described in Fig.S6. The median fluorescence intensity was used for calculating the fold upregulation of fluorescence. Flow cytometry data sets were analyzed using the Novocyte software (Agilent).
Fold upregulation in median fluorescence intensity (FI) from flow cytometry was calculated as follows:
fold upregulation = FI (sample)−FI(bacterial background)/FI (water control)−FI(bacterial background)

Assay [3] concerns bacteria. The note with it: CPP conjugated to anti-acpP PNA; ref [13]; cited from earlier work. An excerpt: For example, we observed a rapid but transient increase in fluorescence for some CPPs (e.g., KFF) and a sustained increase for others (e.g., RXR). This variation can likely be explained by the chemistry and stability of these carriers. […] Therefore, the different dynamics in fluorescence increase c ...

As for “RRRQRRKKRGY [Seq118, cell-penetrating peptide …]”, the “Reporter activation (fold upregulation of sfGFP vs water control)” value in assay [1] is “fivefold”. Also, the “Dynamics of sfGFP upregulation” value in assay [2] was “only showed upregulation at the 17 h time point”.
In the case of “RXRRXRRXRRXRXB [RXR-acpP, RXR conjugated to anti-acpP PNA …]”, in assay [3], the “Time after which bacteria are eradicated” value is given as 15 min.

Values taken from paper PMC12017328, “RNA toehold switch-based reporter assay to assess bacterial uptake of antisense oligomers” (mBio, 2025).
